The record followed here is ChEMBL document CHEMBL1155546, “Rapid synthesis of an array of trisubstituted urea-based soluble epoxide hydrolase inhibitors facilitated by a novel solid-phase method” (Bioorg Med Chem Lett, 2010).

One may read the IC50 as the midpoint of a concentration-inhibition curve. As usually defined, the half-life is the time in which the quantity being followed falls by half. The low end stands for fast loss, the high end for slow loss.

In series [1] the target is T1, Bifunctional epoxide hydrolase 2 (Homo sapiens, UniProt P34913).
T1 sequence (P34913 whole entry): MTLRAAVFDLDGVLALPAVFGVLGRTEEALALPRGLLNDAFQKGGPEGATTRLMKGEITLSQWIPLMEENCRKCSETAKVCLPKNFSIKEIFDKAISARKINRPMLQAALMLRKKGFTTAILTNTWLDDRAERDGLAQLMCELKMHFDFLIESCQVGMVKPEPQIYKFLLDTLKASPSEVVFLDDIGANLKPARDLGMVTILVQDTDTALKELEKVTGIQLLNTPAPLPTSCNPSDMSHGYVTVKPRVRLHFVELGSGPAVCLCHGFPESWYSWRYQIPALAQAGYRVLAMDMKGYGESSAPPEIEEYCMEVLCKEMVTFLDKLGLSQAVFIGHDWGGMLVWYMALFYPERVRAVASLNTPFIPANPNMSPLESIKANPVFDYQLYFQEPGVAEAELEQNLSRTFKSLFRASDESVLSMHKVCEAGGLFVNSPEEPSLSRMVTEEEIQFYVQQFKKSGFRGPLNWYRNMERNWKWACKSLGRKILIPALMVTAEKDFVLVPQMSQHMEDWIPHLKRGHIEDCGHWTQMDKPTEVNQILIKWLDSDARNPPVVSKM
The series can be described thus: Inhibition of human soluble epoxide hydrolase assessed as [2-3H]trans-1,3-diphenyl propylene oxide hydrolysis by cellular assay.

Series [2] in a line: Half life in mouse liver microsome. The series is classed as ADME. The settings on record: liver microsomes. Background: Liver microsomes are vesicles of endoplasmic reticulum, rich in cytochrome P450 enzymes.
The nature of series [3]: Half life in human liver microsome. The series is classed as ADME. The settings on record: liver microsomes.
The next series addresses Cytochrome P450 2C9 (Homo sapiens, UniProt P11712). The series can be described thus: Inhibition of CYP2C9. In kind it is ADME.
Series [4] has as its target T1, Bifunctional epoxide hydrolase 2. In words: Inhibition of human soluble epoxide hydrolase.
For the next series, the target named is T2, Cytochrome P450 2J2 (Homo sapiens, UniProt P51589).
T2 sequence (P51589 whole entry): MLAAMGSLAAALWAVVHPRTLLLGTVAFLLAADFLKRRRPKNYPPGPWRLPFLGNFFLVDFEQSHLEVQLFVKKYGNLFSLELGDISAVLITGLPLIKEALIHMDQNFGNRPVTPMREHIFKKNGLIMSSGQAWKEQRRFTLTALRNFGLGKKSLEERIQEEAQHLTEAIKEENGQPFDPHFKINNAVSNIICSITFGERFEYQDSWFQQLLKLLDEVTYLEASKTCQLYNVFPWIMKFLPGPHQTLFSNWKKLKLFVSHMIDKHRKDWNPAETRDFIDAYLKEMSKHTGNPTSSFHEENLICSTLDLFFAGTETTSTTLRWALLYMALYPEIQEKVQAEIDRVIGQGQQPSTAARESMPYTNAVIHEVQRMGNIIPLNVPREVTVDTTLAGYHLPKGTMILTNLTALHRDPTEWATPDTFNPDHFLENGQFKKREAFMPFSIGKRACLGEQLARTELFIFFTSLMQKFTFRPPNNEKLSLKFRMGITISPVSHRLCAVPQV
The series can be described thus: Inhibition of CYP2J2.

Chain of Cytochrome P450 2C9 (P11712 whole entry): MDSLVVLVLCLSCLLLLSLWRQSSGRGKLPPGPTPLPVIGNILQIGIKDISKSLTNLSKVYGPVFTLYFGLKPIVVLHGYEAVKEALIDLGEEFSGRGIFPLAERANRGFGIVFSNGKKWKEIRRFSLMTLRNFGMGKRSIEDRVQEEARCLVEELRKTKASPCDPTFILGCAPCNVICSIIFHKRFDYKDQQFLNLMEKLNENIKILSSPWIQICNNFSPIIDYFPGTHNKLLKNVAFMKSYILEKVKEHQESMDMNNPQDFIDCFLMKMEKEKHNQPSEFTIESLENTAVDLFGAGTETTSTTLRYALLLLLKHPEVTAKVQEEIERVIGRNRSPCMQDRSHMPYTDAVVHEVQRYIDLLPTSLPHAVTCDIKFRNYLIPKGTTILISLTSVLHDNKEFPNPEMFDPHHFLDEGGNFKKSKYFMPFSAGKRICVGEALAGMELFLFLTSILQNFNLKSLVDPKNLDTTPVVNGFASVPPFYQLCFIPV

Regarding `O=C(NCc1ccccc1OC(F)(F)F)N1CCC(c2ccncc2)C1` (stereo not drawn), the half-maximal inhibitory concentration (IC50) in series [1] turned out to be 76 nM; against Cytochrome P450 2C9 it was 300 nM; in series [4], 7 nM; on Cytochrome P450 2J2 it was 10000 nM. The results for the half-life in series [2] and in series [3] were 42 min and 23 min, respectively.
Regarding `O=C(NCc1ccccc1OC(F)(F)F)N1CCC(Oc2ncccn2)CC1`, the IC50 in series [1] stood at 40 nM; against Cytochrome P450 2C9, 10200 nM; in series [4] it was 4 nM; on Cytochrome P450 2J2, 2000 nM. Besides, the half-life in series [2] amounted to 10 min; in series [3], 54 min.
As to `O=C(NCc1ccc(Cl)cc1Cl)N1CCC(Oc2ccncc2)CC1`, the half-maximal inhibitory concentration (IC50) in series [1] is 22 nM; on Cytochrome P450 2C9, 100 nM; in series [4] it was 9 nM; at Cytochrome P450 2J2, 2700 nM. Moreover, the half-life was determined as 25 min in series [2] and 42 min in series [3].
Take `O=C(NCCC(c1ccc(F)cc1)c1ccc(F)cc1)N1CCC(Oc2cnccn2)CC1`: the values for the IC50 (in series [1]; against Cytochrome P450 2C9; in series [4]) were 13 nM, 2900 nM and 1 nM, respectively. Further, the figures for the half-life in series [2] and in series [3] were 2 min and 7 min, respectively.
As to `O=C(NCc1ccccc1OC(F)(F)F)N1CCC(Oc2ccncc2)CC1`, the half-life in series [2] worked out at 42 min; in series [3], 34 min. The half-maximal inhibitory concentration (IC50) on Cytochrome P450 2C9 came out at 800 nM; in series [4], 14 nM; against Cytochrome P450 2J2, 10000 nM.
Turning to `O=C(NCCC(c1ccc(F)cc1)c1ccc(F)cc1)N1CCC(c2cnccn2)C1` (stereo not drawn), the values for the IC50 (in series [1]; on Cytochrome P450 2C9; in series [4]) were 4 nM, 8100 nM and 3 nM, respectively. Besides, the half-life in series [2] and in series [3] was 2 min throughout.
